The results in this text go back to patent US20190350940A1, “PLATINUM COMPOUNDS, COMPOSITIONS, AND USES THEREOF” (priority 2015, published 2019).

SMILES strings stand for the structures. pIC50: −log10 of the molar value.

Series [1] can be described thus: Vial selection: clear versus amber (light versus dark). The format is physicochemical. The settings on record: 5 mM citrate buffer saline pH about 4, room temperature 24 hours. The procedure: To compare light versus dark conditions, Compound 8 was formulated in 5 mM citrate buffer saline at pH about 4 and placed into two separate vials (one clear and the other amber). The formulations were stored at room temperature for 24 hours and the amount of Impurity 1 and Impurity 2 was observed. From the FIGS. 4 and 5, it can be seen that exposing the Compound 8 solution to light in a clear vial caused an increase in the amount of Impurity 1 in comparison to the solution contained in an amber vial (˜10% Impurity 1 compared to ˜0.75% Impurity 1). […] Also, from these experiments it was concluded that the formation of Impurity 2 is not photosensitive but dependent upon the pH of the formulation.

Another series concerns the target CYP3A4 (Homo sapiens, UniProt P08684). Put plainly: CYP inhibition, 3A4. In kind it is in vitro ADME.

Sequence of CYP3A4 (P08684 whole entry): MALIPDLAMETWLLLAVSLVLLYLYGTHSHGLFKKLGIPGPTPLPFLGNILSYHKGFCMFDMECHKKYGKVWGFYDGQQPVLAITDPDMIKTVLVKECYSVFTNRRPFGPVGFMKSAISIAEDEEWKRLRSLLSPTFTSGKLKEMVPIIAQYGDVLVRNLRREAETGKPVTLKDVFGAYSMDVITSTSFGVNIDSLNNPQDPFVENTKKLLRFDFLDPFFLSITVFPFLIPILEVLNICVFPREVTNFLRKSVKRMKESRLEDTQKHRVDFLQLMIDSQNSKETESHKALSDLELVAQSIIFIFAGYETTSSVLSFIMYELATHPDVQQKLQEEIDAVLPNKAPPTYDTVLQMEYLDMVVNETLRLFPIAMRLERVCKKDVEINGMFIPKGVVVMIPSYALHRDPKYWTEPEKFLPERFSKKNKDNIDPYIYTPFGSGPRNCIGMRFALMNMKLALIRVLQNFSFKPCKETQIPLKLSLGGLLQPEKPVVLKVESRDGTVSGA

As for `CC(=O)[O][Pt]([NH2])([NH2])([Cl])([Cl])[O]C(=O)NCCCCCN1C(=O)C=CC1=O` [Compound 8], the “Amount of Impurity 1” value in series [1] (amber vial (dark)) is on record as roughly 0.75%. In addition, in series [1] (clear vial (light)), the “Amount of Impurity 1” value is roughly 10% and the “Amount of Impurity 2” value stood at 0.5%. At CYP3A4, the negative logarithm of the IC50 (pIC50) is 5.71.
